“Also recorded” adds a separate entry of the source. Where two headings read alike, the source gives them in different places.
Tests used:
mBMDC = experiment: MTT viability assay in mBMDC; settings: 18 h, concentrations up to 10 μM
Protocol: Cytotoxicity of the compounds was evaluated by MTT assay as a measure of viability. mBMDC (10^5/well) were incubated with graded concentrations of the compounds for 18 h and compared with vehicle (0.5% DMSO) and MPLA (1 μg/mL). […] (FIG. 6B) The cells were lysed after the overnight incubation with MTT reagents, and absorbance at 570 nm was measured, subtracting the reference absorbance at 650 nm. Data shown are mean±SEM of triplicates and are representative of two independent experiments showing similar results.

C57BL/6 mice [1] = experiment: Protection from LPS/galactosamine-induced lethal liver injury; assay type: in vivo, mouse; settings: for Survival: i.p. pretreatment (500 nmol Cmpd, 40 μg MPLA), next day LPS 0.2 μg + galactosamine 12 mg per animal, survivors/treated
Protocol: FIGS. 11A-11B depict that administration of Cmpd 42 and Cmpd 33 protects hosts from LPS-induced lethal liver injury. FIG. 11A: Schematic showing that C57BL/6 mice were intraperitoneously injected with 500 nmol Cmpd. 42 (n=11) or Cmpd 33 (n=11). 40 μg MPLA (n=9) and vehicle (n=9) were used as positive and negative controls, respectively. Next day, mice were challenged with LPS (0.2 μg/animal) and galactosamine (12 mg/animal). FIG. 11B: Histogram showing results of sera collected 1.5 h post challenge and measured for TNFα. *:p<0.05 compared to vehicle treated mice.
Lipopolysaccharide (LPS), a TLR4 ligand, causes severe lethal liver injury when administered with galactosamine. Pretreatment of mice with MPLA is known to improve the survival in this model. To study whether Cmpd 42 and Cmpd 33 are able to act as immunomodulatory agents similar to MPLA, the mice were treated with Cmpd 42 or Cmpd 33 and challenged with LPS/galatosamine the next day, as depicted in FIG. 11A. Over 80% of Cmpd 42 and 100% of Cmpd 33-treated mice survived.

[2] = test system: mouse bone marrow derived dendritic cells (mBMDC); experiment: IP-10 induction in mBMDC (ELISA), surrogate marker of type I IFN; assay type: cell-based
mouse TLR4 = target: T1, mouse TLR4 (Mus musculus, UniProt Q9JHF9+Q9QUK6); experiment: Murine TLR4 HEK Blue NFκB/SEAP reporter assay; assay type: cell-based; settings: for mouse TLR4, area under curve (AUC) values normalized to Cmpd 1: mTLR4 HEK transfectoma, 312 nM to 10 μM, Cmpd 1 set at 100
T1 construct: host or cells: HEK293 (HEK Blue) cells with NFκB/SEAP reporter
T1 sequence (Q9QUK6 26-835): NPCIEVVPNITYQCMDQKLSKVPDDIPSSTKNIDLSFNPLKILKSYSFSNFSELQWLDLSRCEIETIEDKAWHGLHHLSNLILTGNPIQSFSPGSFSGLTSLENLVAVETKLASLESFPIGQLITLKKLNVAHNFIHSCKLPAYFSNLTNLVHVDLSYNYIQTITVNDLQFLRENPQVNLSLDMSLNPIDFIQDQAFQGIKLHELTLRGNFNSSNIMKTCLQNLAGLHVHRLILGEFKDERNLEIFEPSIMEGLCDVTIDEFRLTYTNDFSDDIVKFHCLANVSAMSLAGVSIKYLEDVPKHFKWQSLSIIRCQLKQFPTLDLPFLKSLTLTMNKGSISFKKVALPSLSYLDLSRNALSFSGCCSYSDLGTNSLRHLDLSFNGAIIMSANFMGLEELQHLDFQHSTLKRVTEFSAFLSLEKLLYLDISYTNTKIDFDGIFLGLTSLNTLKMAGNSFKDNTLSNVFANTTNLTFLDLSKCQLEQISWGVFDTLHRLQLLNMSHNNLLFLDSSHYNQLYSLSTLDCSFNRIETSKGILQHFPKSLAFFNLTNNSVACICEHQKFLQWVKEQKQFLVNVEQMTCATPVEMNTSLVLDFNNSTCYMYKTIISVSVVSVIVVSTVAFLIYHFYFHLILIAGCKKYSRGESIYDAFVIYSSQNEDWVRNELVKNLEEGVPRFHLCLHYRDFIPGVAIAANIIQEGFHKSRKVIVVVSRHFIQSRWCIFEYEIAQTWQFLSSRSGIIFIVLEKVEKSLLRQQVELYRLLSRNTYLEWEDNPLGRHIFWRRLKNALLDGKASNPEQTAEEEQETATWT
T1 sequence (Q9JHF9 19-160): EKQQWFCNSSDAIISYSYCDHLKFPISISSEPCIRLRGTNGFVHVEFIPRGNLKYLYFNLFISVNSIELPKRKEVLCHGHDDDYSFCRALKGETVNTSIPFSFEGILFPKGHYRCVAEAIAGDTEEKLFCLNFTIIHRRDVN
Protocol: (§1) The above assays were utilized to compare the derivatives of the lead pyrimidoindole for their ability to activate mouse and human TLR4. […] Each cytokine induction curve was first converted to a percent activity curve, and then the AUC of the percent activity curve was calculated. The process of converting to a percent activity curve allowed subtracting background and adjusting for plate-to-plate variation.
(§2) The culture supernatants were harvested after a 20-24 h incubation period. SEAP activity in the supernatants was determined by a colorimetric assay, using either the SEAPorter Assay Kit (Imgenex), with absorbance read at 405 nm, or QuantiBlue (Invivogen), with absorbance read at 630 nm.

[3] = test system: mouse bone marrow derived dendritic cells (mBMDC); experiment: IL-6 induction in mouse bone marrow derived dendritic cells (ELISA); assay type: cell-based
[4] = test system: mouse bone marrow derived dendritic cells (mBMDC); experiment: IP-10 induction in mBMDC (ELISA), surrogate marker of type I IFN; assay type: cell-based; settings: relative to Cmpd 1
Protocol: In addition to the production of inflammatory cytokines (IL-6, IL-12, TNFα, etc.) mediated by NFκB activation, TLR4 signaling can result in the production of type I interferons, a feature that is not only important for activation of dendritic cells leading to good adjuvant activity, but would also be important for rapid defense against a variety of pathogens, particularly viruses. […] To determine the relative ability of all compounds to induce the production of type 1 IFN, each was evaluated in mouse bone marrow derived dendritic cells as shown in Tables 1-3.
(§3) BMDC were prepared from C57BL/6 mice as described. See e.g., Wu, C. […] BMDC (10^5 cells per well) were plated in 96-well plates in 200 μL of complete RPMI1640 supplemented with 10% fetal calf serum (FCS; Sigma Aldrich), 100 U/mL penicillin, and 100 μg/mL streptomycin (Invitrogen). […] After 18 h incubation, the cell culture supernatants were collected. LPS (purified LPS, Invivogen, San Diego, Calif.) or MPLA (1 μg/mL synthetic MPLA, Invivogen, San Diego, Calif.) were used as positive controls. […] The AUC was calculated from BMDC dose-response curves using Prism 5 (GraphPad, San Diego). Each cytokine induction curve was first converted to a percent activity curve, and then the AUC of the percent activity curve was calculated. The process of converting to a percent activity curve allowed subtracting background and adjusting for plate-to-plate variation.
In addition, the levels of IP-10, a surrogate marker of type I IFN, in the supernatants were determined by ELISA (R&D Systems, Minneapolis, Minn.).

human TLR4 = target: T2, human TLR4 (Homo sapiens, UniProt O00206+Q9Y6Y9); experiment: Human TLR4 HEK Blue NFκB/SEAP reporter assay; assay type: cell-based; settings: for human TLR4, values normalized to Cmpd 1: hTLR4 HEK293 transfectoma, all compounds tested at 10 μM, Cmpd 1 set at 100
T2 construct: host or cells: HEK293 (HEK Blue) cells with NFκB/SEAP reporter
T2 sequence (O00206 24-839): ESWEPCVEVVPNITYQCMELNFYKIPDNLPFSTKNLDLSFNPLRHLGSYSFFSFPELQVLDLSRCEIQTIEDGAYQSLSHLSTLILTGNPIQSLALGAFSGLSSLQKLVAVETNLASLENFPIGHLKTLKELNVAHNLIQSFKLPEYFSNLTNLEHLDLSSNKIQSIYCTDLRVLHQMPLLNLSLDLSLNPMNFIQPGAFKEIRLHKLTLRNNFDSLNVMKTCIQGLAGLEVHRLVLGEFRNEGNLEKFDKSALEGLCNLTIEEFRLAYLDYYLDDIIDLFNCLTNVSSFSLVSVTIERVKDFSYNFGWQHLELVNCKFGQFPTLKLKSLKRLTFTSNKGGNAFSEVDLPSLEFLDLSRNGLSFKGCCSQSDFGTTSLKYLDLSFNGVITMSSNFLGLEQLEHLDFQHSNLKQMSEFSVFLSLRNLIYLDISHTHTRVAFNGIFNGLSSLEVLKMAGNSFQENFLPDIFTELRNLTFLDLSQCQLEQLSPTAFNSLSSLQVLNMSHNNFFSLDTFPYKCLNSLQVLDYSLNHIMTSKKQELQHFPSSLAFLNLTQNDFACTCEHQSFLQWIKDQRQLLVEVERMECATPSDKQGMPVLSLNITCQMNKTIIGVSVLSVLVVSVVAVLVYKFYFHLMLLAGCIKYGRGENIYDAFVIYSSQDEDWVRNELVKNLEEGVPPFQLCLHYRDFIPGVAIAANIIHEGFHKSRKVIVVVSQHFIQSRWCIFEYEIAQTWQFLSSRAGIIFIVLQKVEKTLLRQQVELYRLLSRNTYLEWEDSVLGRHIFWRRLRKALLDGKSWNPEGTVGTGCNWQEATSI
T2 sequence (Q9Y6Y9 19-160): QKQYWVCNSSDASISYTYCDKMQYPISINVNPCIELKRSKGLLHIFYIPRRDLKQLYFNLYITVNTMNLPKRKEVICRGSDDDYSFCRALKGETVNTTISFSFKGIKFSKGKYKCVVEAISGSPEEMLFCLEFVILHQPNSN
Protocol: as §1, §2

C57BL/6 mice [5] = test system: C57BL/6 mice
[6] = test system: mouse bone marrow derived dendritic cells (mBMDC); experiment: IL-6 induction in mouse bone marrow derived dendritic cells (ELISA); assay type: cell-based; settings: relative to Cmpd 1 / within series
Protocol: as §1, §3

[7] = test system: TLR2, TLR3, TLR4/MD-2/CD14, TLR5, TLR7, TLR8, or TLR9 expressing HEK293 cells; settings: 10 μM, 20-24 h, SEAP
Text: To identify the target receptor, we used HEK293 cells stably transfected with individual human (h) TLRs: TLR2, TLR3, TLR4/MD-2/CD14, TLR5, TLR7, TLR8, or TLR9 expressing HEK293 cells, along with an NFκB activation reporter producing secreted embryonic alkaline phosphatase (SEAP).

[8] = test system: human peripheral blood mononuclear cells (hPBMC); experiment: IL-8 release from human PBMC (ELISA); assay type: cell-based; settings: compound 1 10 μM
Protocol: Human PBMC were isolated from buffy coats obtained from the San Diego Blood Bank (San Diego, Calif.) as described previously. […] The levels of IL-8 in the supernatants were determined by ELISA (BD Biosciences, La Jolla, Calif.). Human cell cultures were treated with 10 ng/mL LPS as the positive control.

[9] = test system: mouse bone marrow derived dendritic cells (mBMDC)
Protocol: 0.5% DMSO in saline served as a vehicle controls. The levels type I IFN were determined using L929-ISRE luciferase reporter cell line using murine IFN beta standard (FIG. 7A). IP-10 levels were determined by ELISA (FIG. 7B). Data shown are mean±SEM of triplicates in representative of two independent experiments showing similar results. * denotes p<0.05 was considered as significant compared to vehicle using one way ANOVA with Dunnett's post hoc testing.
L929 cells stably expressing an interferon sensitive response element (ISRE) luciferase reporter construct were kindly provided by Dr. B. Beutler (UT Southwestern, Texas). […] The bioactivity of type I IFN in mBMDC supernatants was measured by luciferase assay using L929-ISRE cells as described previously. […] Thus, 50 μL of μBMDC supernatant was incubated with L929-ISRE cells in 50 μL of DMEM for 6 h. Mu-IFN Beta Standard (PBL Interferon Source, Piscataway, N.J.) was used as a standard. The luciferase activities were measured by Steady-Glo luciferase assay buffer (Promega, Madison, Wis.).

[10] = WT vs Cd14-/- mBMDC, 3.7 μM overnight

CCCn1c2ccccc2c2nc(SCC(=O)NC3CCCCC3)n(-c3ccccc3)c(=O)c21 [Compound 48, N-cyclohexyl-2-((4-oxo-3-phenyl-5-propyl-4,5-dihydro-3H-pyrimido[5,4-b]indol-2-yl)thio)acetamide]
cell viability (MTT) (mBMDC): did not reduce cell viability

O=C(CSc1nc2c([nH]c3ccccc32)c(=O)n1-c1ccccc1)NCC1CCCO1 (stereo not drawn) [Compound 33, 2-((4-oxo-3-phenyl-4,5-dihydro-3H-pyrimido[5,4-b]indol-2-yl)thio)-N-((tetrahydrofuran-2-yl)methyl)acetamide]
serum TNFα (C57BL/6 mice [1]; […] post challenge, compared to vehicle treated mice): significantly lower level
mice survived (C57BL/6 mice [1]; i.p. pretreatment 500 nmol, LPS/galactosamine challenge next day): 100%
Survival (C57BL/6 mice [1]): 11/11
IP-10 induction in LPS mutant (Trif lps/lps) cells ([2]; 5 μM overnight, vs C57BL/6 WT): significantly decreased
mouse TLR4, area under curve (AUC) values normalized to Cmpd 1 (mouse TLR4): 21
IL-6 secretion in MyD88 null dendritic cells ([3]; 5 μM overnight, vs C57BL/6 WT): significantly impaired
IP-10 production in mBMDC (in words) [4]: nearly equivalent induction of IP-10
human TLR4, values normalized to Cmpd 1 (human TLR4): 13
maximum tolerated dose relative to MPLA (C57BL/6 mice [5]; liver injury model with galactosamine): over 100 times
IL-6 activity in mBMDC (in words) [6]: diminished IL-6 release

N#CCn1c2ccccc2c2nc(SCC(=O)NC3CCCCC3)n(-c3ccccc3)c(=O)c21 [Compound 51, 2-((5-(cyanomethyl)-4-oxo-3-phenyl-4,5-dihydro-3H-pyrimido[5,4-b]indol-2-yl)thio)-N-cyclohexylacetamide]
mouse TLR4, area under curve (AUC) values normalized to Cmpd 1 (mouse TLR4): 55
human TLR4, values normalized to Cmpd 1 (human TLR4): 19
cell viability (MTT) (mBMDC): did not reduce cell viability

O=C(CSc1nc2c([nH]c3ccccc32)c(=O)n1-c1ccccc1)NC1CCCCC1 [Compound 1, N-cyclohexyl-2-((4-oxo-3-phenyl-4,5-dihydro-3H-pyrimido[5,4-b]indol-2-yl)thio)acetamide]
IP-10 production [2]: dose-dependent response
IP-10 production in mBMDC (in words) [2]: high IP-10 production
IP-10 released by mBMDC cultures (average) [2]: 590.0 ± 10.5 pg/mL
mouse TLR4 reporter cell activation (in words) (mouse TLR4): dose-dependent activation
relative reporter activation, murine TLR4 cells (mouse TLR4; 5 μM Cmpd 1): 1.52±0.03
mouse TLR4, area under curve (AUC) values normalized to Cmpd 1 (mouse TLR4): 100
IL-6 released by mBMDC cultures (average, SD) ([3]; 5 μM Cmpd 1): 10.5 ng/mL
IL-6 secretion in TLR4 deficient vs wild-type mBMDC ([3]; 10 μM, 18 h): completely abrogated
CD14 dependence of IL-6 production [3, 10]: not dependent on CD14; also recorded: retains IL-6 activity
TLR selectivity among TLR transfected HEK293 reporter cells [7]: only those expressing TLR4/MD-2/CD14 responded
human TLR4 reporter cell activation (in words) (human TLR4): dose-dependent activation
OD630 of human TLR4 reporter cells (human TLR4; 10 μM Cmpd 1): 0.88
human TLR4, values normalized to Cmpd 1 (human TLR4): 100
IL-6 activity in mBMDC (in words) [6]: the most active; also recorded: high IL-6
IL-8 released by hPBMC cultures (average, SD) [8]: 7.8 ± 0.8 ng/mL
CD14 dependence of type I IFN production [9, 10]: not dependent on CD14
type I IFN production ([9]; graded doses, mBMDC overnight): dose-dependent response

O=C(CSc1nc2c([nH]c3ccccc32)c(=O)n1-c1ccccc1)NC1CCCCCCC1 [Compound 10, N-cyclooctyl-2-((4-oxo-3-phenyl-4,5-dihydro-3H-pyrimido[5,4-b]indol-2-yl)thio)acetamide]
mouse TLR4, area under curve (AUC) values normalized to Cmpd 1 (mouse TLR4): 95
IP-10 production in mBMDC (in words) [4]: high IP-10 production
human TLR4, values normalized to Cmpd 1 (human TLR4): 64
IL-6 activity in mBMDC (in words) [6]: the most active; also recorded: high IL-6

O=C(CSc1nc2c([nH]c3ccccc32)c(=O)n1-c1ccccc1)NC1CCCCCC1 [Compound 9, N-Cycloheptyl-2-((4-oxo-3-phenyl-4,5-dihydro-3H-pyrimido[5,4-b]indol-2-yl)thio)acetamide]
mouse TLR4, area under curve (AUC) values normalized to Cmpd 1 (mouse TLR4): 99
IP-10 production in mBMDC (in words) [4]: high IP-10 production
human TLR4, values normalized to Cmpd 1 (human TLR4): 100
IL-6 activity in mBMDC (in words) [6]: the most active; also recorded: high IL-6

monophosphoryl lipid A [MPLA, reference compound]
Survival (C57BL/6 mice [1]): 8/9
Survival (C57BL/6 mice [5]; i.p. 500 nmol Cmpd 42, MPL 40 μg or LPS 0.2 μg mixed with galactosamine 12 mg, survivors/treated): 0/5
Serum TNFα levels (C57BL/6 mice [5]; with galactosamine 12 mg/animal, up to 15 μmol/animal Cmpd 33, 1 μmol/animal Cmpd 42, 10 μg/animal MPLA): induced detectable TNFα
